Where a SMILES comes first, the peptide text is derived from it.
Legend:
SH-SY5Y cells [1] = details: 10 μM αSOs (0.14 μg/ml) with 35 μg/ml peptide, 24 h, MTT
Experimental: (§1) The effect of the peptides on αSOs toxicity in SH-SY5Y cells using 3-(4, 5-dimethylthiazol-2-yl)-2,5-diphenyltetrazolium bromide (MTT) cell viability assay was also tested to complement our calcein data.
(§2) We used the MTT assay to measure cell viability after 24 h treatment with αSOs in the presence of peptides. SH-SY5Y cells were seeded in 96-well plates at a density of 5 × 10^4 cell/ml in Dulbecco's modified Eagle's medium supplemented with 10% FBS, 100 unit/ml penicillin, and […]. The cells were incubated in a humidified atmosphere incubator with 5% CO2 and 95% humidity at 37 °C for 24 h. The culture medium was then replaced with fresh medium containing 10 μM αSOs with peptides and incubated for another 24 h. Then the cell medium was replaced with a fresh medium containing 20% MTT (5 mg/ml), and the cells were incubated for an additional 4 h at 37 °C. Then 100 μl of dimethyl sulfoxide was added to dissolve formazan crystals by incubating for 30 min on a shaker at RT. Consequently, absorbance was measured by using a plate reader at 570 nm.

αSOs = biological target: T1, αSOs (Homo sapiens, UniProt P37840); experiment: Calcein release assay, αSOs together with peptides; type: biochemical
T1 construct: made in house; host or cells: Escherichia coli BL21 (DE3); oligomers formed by shaking the monomer and isolated by SEC (Superose 6)
Experimental: αSOs show cytotoxic properties, which have been attributed to their membrane-disrupting ability ([69]). To examine the effect of peptides on membrane permeabilization by αSOs, we used a simple calcein release assay. αSOs, peptides, and aSO–peptide mixtures at 10^−6 to 10^−1 mg/ml peptide were added to calcein-loaded DOPG vesicle, and the extent of calcein release was monitored for 30 min by the increase in fluorescence as calcein leaks out upon membrane permeabilization, leading to dilution and the loss of self-quenching. The time-dependent calcein release data from DOPG vesicles ([70], [71]) in the presence of peptides, αSOs, and αSO–peptides are shown in Figs. S9 and S10. In order to allow easy comparison of all peptides, the calcein release versus concentration (peptides and αSOs) were plotted at the plateau point of release (Fig. 5, A–C). […] Figure 5D compares calcein release percentages of data represented in Figure 5, A and B at peptide concentrations between 0.001 and 0.1 mg/ml, where we see the largest extent of calcein release in general.
Calcein-filled vesicles of DOPG were prepared as described before ([38]). Briefly, DOPG was dissolved in PBS to […], in the presence of calcein at self-quenching concentrations (70 mM) and subjected to 10 freeze–thaw cycles between liquid nitrogen and a 50 °C water bath. After 21 times extrusion through a 100 nm filter, free calcein was separated from vesicles with a PD-10 desalting column (GE Healthcare). Vesicles were stored at 4 °C and used for calcein release assays within 24 h.
Calcein release was measured by mixing peptides and/or αSOs at a final concentration of 10^−6 to 10^−1 mg/ml and 5.2 μg/ml, respectively, in 148 μl with 2 μl of calcein vesicles, and were then loaded onto a 96-well plate (Nunc, Thermo Fischer Scientific) in triplicate. The plate was sealed with Crystal clear sealing tape (Hampton Research), and fluorescence was measured (excitation: 485 nm and emission: 520 nm) for 1 h at 37 °C every 2 min with a 2 s autoshake before each reading on a fluorescence plate reader (Tecan). Finally, 2 μl Triton X-100 (0.2% [v/v]) was added to lyse vesicles, and the maximal fluorescence signal was measured for 20 min under the same reading condition. Background fluorescence was subtracted, and the average signal of calcein release before addition of Triton X-100 (F), after treatment with Triton X-100 (Ft) and for the buffer control (F0) were determined, and calcein release percentage was calculated as follow (Equation 1):(1) CalceinRelease%(CR%)=(F−F0)/(Ft−F0)

SH-SY5Y cells [2] = experiment: MTT cell viability assay, substance alone
Experimental: as §1, §2

αSO = biological target: T2, αSO (Homo sapiens, UniProt P37840); experiment: Microfluidic diffusional sizing binding affinity (Fluidity One-W), αSO; details: 60 μM labeled p216, 0–84 μM αSO, MilliQ water, 15 min in the dark; 1:1 binding fit of Rh; read-out: Dissociation binding constant (Kd) for αSO
T2 construct: made in house; host or cells: Escherichia coli BL21 (DE3); oligomers formed by shaking the monomer and isolated by SEC (Superose 6)
Experimental: (§3) To determine an actual binding affinity of p216 to αSOs and α-syn, the hydrodynamic radius (Rh) of labeled p216 bound to unlabeled αSOs–α-syn was determined by microfluidic diffusional sizing ([72]). […] Rather, a direct and easily interpretable parameter is provided in the form of the Rh. […] For both species, binding of peptide led to a significant increase in Rh, confirming peptide immobilization in complex with these states. The measured values of ca. 5 and 11 nm for α-syn and αSO, respectively, agree nicely with the known Rh of α-syn ([73]) (4 nm) and αSO (10 nm) ([74]).
(§4) Peptides were labeled with fluidiphore rapid amine 503 (Fluidic Analytics Limited), an amine-reactive fluorescent label whose absorbance shifts from 612 nm (free) to 503 nm when conjugated. About 1 mg dry fluidiphore dye was dissolved in 100 μl acetonitrile and stored at −20 °C. The peptide stock solutions were diluted into labeling buffer (0.1 M NaHCO3, pH 8.3) to a final concentration of 1 mg/ml (100 μl) and mixed with 3 μl of dye solution (final dye concentration of […]) and incubated for 30 min at RT. […]
(§5) Fluidity One-W (Fluidic Analytics Limited) ([101]) was used to measure the binding affinity and Rh of peptides bound to α-syn monomers and oligomers. We determined the lowest concentration of labeled peptides that could be detected by the instrument to be 60 μM. […]

α-syn [3] = biological target: T3, α-syn (Homo sapiens, UniProt P37840); experiment: Microfluidic diffusional sizing binding affinity (Fluidity One-W), α-syn monomer; details: 60 μM labeled p216, 0–400 μM α-syn monomer, MilliQ water, 15 min in the dark; 1:1 binding fit of Rh; read-out: Dissociation binding constant (Kd) for α-syn
T3 construct: made in house; host or cells: Escherichia coli BL21 (DE3), plasmid pET11-D
Experimental: as §3, §4, §5

α-syn [4] = details: cited from earlier work
Text: Cell-penetrating peptides (CPPs) ([57]) are defined as a short relatively nontoxic and partly hydrophobic and/or polybasic peptides ([…] 5–35 amino acid residues), with a net positive charge at physiological pH. CPPs have the ability of interacting with negatively charged groups on the cellular membrane, which results in their internalization ([58], [59]) but can also cotransport a variety of cargoes inside the cells ([58], [60], [61], [62]). Cationic CPPs are able to translocate across membranes in a nonendocytotic fashion, generally by one of following mechanisms: the inverted micelle mo ...

[5] = vesicles formed by DOPG and other negatively charged lipids; cited from earlier work
Experimental: Penetratin forms β-structures on vesicles formed by DOPG and other negatively charged lipids (at concentrations >10^−3 mg/ml), leading to membrane perturbation ...

Row | Molecule | Increase of cell viability compared with αSOs alone (SH-SY5Y cells [1]) | Reduction of αSO-induced membrane permeability (αSOs; calcein-filled DOPG LUVs, peptide concentration not stated at the place) [%] | Reduction of αSOs-induced large anionic unilamellar vesicle membrane permeability (αSOs; peptide at 10^−1 to 10^−3 mg/ml) [%] | Cell viability (MTT) (SH-SY5Y cells [2]; SH-SY5Y cells, 35 μg/ml peptide alone, 24 h) [%] | Toxicity to SH-SY5Y cells, in words (SH-SY5Y cells [2]; peptide alone, MTT) | Kd (αSO) [µM] | Kd (α-syn [3]) [µM] | Effect on fibrillation of α-syn (α-syn [4]) | Concentration at which β-structures form on vesicles, leading to membrane perturbation and permeabilization [5]
1 | CSCC[C@H](NC(=O)[C@H](CCCNC(=N)N)NC(=O)[C@H](CCCNC(=N)N)NC(=O)[C@H](CC(N)=O)NC(=O)[C@H](CCC(N)=O)NC(=O)[C@H](Cc1ccccc1)NC(=O)[C@@H](N)Cc1c[nH]c2ccccc12)C(=O)N[C@@H](CCCCN)C(=O)N[C@@H](Cc1c[nH]c2ccccc12)C(=O)N[C@@H](CCCCN)C(=O)N[C@@H](CCCCN)C(=O)O [p216] (H-WFQNRRMKWKK-OH) | about 20% | 100 | ~100 | 92 | not toxic | 2.7 | 31.2 | – | –
2 | RQIKIWFQNRRMKWKK [Penetratin, cell-penetrating peptide from the third helix of the Antennapedia protein homeodomain] | – | – | – | – | – | – | – | inhibit fibrillation of α-syn | > 10^−3 mg/ml

Reference: paper PMC9791135, “A penetratin-derived peptide reduces the membrane permeabilization and cell toxicity of α-synuclein oligomers” (The Journal of Biological Chemistry, 2022)
